The target in series [1] is T1, human TRPV3 (Homo sapiens, UniProt Q8NET8).
T1 sequence (Q8NET8 1-790): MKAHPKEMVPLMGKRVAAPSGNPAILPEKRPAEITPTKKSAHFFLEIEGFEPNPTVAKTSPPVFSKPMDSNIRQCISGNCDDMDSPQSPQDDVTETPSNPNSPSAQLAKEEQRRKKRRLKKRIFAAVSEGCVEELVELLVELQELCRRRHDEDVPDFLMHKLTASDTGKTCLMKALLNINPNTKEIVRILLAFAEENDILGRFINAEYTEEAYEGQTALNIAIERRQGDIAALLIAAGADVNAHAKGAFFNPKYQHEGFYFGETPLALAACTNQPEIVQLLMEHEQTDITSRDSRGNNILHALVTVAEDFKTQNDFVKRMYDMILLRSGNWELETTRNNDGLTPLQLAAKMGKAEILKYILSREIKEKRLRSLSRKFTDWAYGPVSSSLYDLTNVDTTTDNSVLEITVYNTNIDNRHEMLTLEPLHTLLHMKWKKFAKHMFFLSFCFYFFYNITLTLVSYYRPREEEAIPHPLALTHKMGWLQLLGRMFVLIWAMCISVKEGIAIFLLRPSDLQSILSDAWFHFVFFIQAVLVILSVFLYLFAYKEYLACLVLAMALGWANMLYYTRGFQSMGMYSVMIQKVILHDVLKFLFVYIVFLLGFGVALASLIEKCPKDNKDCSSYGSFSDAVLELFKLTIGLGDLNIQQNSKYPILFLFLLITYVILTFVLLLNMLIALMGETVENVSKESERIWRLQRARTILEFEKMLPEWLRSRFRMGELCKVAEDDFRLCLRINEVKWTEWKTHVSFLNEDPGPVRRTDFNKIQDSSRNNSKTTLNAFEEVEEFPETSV
Briefly: Re-evaluation of screening hits as TRPV3 agonists. In kind it is cell-based. As to conditions: Table 1.

For the next series, the target named is T2, TRPV3-H426N (Homo sapiens, UniProt Q8NET8, H426N).
T2 sequence (Q8NET8 1-790 H426N): T1 sequence (Q8NET8 1-790) with H426N
Briefly: Calcium flux in HEK-293 cells transiently transfected with TRPV3-H426N. It counts as cell-based. The settings on record: agonist 100 μmol/L.

The next series addresses T3, TRPV3 in HaCaT cells (Homo sapiens, UniProt Q8NET8).
T3 sequence (Q8NET8 1-790): T1 sequence (Q8NET8 1-790)
Briefly: Calcium flux in HaCaT cells. It counts as cell-based.

For the next series, the target named is T4, TRPV3-R696K (Homo sapiens, UniProt Q8NET8, R696K).
T4 sequence (Q8NET8 1-790 R696K): T1 sequence (Q8NET8 1-790) with R696K
Briefly: Calcium flux in HEK-293 cells transiently transfected with TRPV3-R696K. As to conditions: 100 μmol/L carvacrol, 100 μmol/L 2-APB, 100 and 200 μmol/L drofenine. It counts as cell-based.

Series [2] deals with T1, human TRPV3. Briefly: Calcium flux in TRPV3 overexpressing HEK-293 cells. In kind it is cell-based.
Series [3] addresses T1, human TRPV3. Briefly: Re-evaluation of screening hits as TRPV3 antagonists. It counts as cell-based. The settings on record: Table 2; selectivity versus other TRP channel overexpressing HEK-293 lines.
Another series has as its system HaCaT cells. Briefly: Cell viability assay. It counts as cell-based, human. The settings on record: data not shown.
The next series deals with TRPV3. As to conditions: cited from earlier work; for EC50: depending on the model used.
A further series has as its target human TRPV1 (Homo sapiens, UniProt Q8NER1). Briefly: Calcium flux in HEK-293 cells overexpressing TRPV1. In kind it is cell-based. As to conditions: Table 2 comment.
The target in series [4] is T1, human TRPV3. The series can be described thus: Inhibition of agonist-induced calcium flux in TRPV3 overexpressing HEK-293 cells. In kind it is cell-based. As to conditions: all three agonists (drofenine, carvacrol, 2-APB).

Where a chain is given by its changes, count along the chain named. Counter-ions that a name gives are not always drawn. Like-named read-outs stand apart in the source and are kept apart here. Where only a bound is given, the exact number is not on record here.

Sequence of human TRPV1 (Q8NER1 whole entry): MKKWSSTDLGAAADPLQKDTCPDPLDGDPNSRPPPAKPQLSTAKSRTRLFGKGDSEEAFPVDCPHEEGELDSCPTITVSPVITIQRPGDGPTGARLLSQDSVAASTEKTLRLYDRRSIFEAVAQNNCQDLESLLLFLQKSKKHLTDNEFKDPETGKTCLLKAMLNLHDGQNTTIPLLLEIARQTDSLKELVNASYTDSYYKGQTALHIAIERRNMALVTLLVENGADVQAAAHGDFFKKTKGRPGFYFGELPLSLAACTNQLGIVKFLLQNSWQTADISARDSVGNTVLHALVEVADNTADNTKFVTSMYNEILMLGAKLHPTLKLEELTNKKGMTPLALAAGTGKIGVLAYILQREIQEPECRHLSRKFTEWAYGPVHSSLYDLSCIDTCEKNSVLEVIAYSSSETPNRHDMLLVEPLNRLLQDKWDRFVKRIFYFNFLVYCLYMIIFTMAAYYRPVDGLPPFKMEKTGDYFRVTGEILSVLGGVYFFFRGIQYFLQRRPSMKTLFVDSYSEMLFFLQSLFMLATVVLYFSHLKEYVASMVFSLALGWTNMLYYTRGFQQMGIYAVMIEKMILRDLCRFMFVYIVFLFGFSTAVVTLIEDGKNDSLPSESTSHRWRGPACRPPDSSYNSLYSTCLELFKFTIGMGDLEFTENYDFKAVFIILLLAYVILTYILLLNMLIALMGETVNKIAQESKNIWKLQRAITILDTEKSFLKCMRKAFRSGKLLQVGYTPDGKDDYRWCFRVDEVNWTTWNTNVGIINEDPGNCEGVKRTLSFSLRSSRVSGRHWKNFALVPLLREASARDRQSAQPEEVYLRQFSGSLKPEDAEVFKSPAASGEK

As for `CC(=O)OCC[N+](C)(C)C` [Acetylcholine], the “Comment(s): re-evaluation as TRPV3 agonist” value (“Comment(s) … as TRPV3 agonist” below) at human TRPV3 [1] is reported as “Nonselective; HEK-293 response”. Consider `Cc1ccc(C(C)C)cc1O` [carvacrol], for which the “calcium flux in TRPV3-H426N relative to TRPV3-WT” value on TRPV3-H426N is listed as “no effect”. Also, the concentration for a half-maximal effect (EC50) on TRPV3 in HaCaT cells is over 1000 µM; on human TRPV3 [2], 438 µM. In addition, at TRPV3-R696K, the “calcium flux in TRPV3-R696K” value is recorded as “diminished-to-no-function”.

`C[N+](C)(C)CCOC(N)=O` [Carbachol]: the “Comment(s) … as TRPV3 agonist” value at human TRPV3 [1] is “Nonselective; HEK-293 response”.

In the case of `COc1cc([C@@H]2c3cc4c(cc3[C@@H](O[C@@H]3O[C@@H]5CO[C@@H](C)O[C@H]5[C@H](O)[C@H]3O)[C@H]3COC(=O)[C@H]23)OCO4)cc(OC)c1O` [Etoposide], the “Comment(s): re-evaluation as TRPV3 antagonist” value at human TRPV3 [3] was “Cytotoxic, false positive”. For the compound `O=C1NC(c2cccc([N+](=O)[O-])c2)=CCN1c1ccccc1O` [icilin], the cytotoxicity entry in the series with HaCaT cells is reported as “potently cytotoxic”. Moreover, the “inhibition of TRPV3” value in the series on TRPV3 (ref Sherkheli et al. [2012]) was “inhibits TRPV3 at low micromolar concentrations”. For `O=C(O)c1ccccc1Nc1cccc(C(F)(F)F)c1` [Flufenamic acid], the “Comment(s): re-evaluation as TRPV3 antagonist” value on human TRPV3 [3] is reported as “Nonselective; also inhibited TRPV1”. As for `CCCCNc1ccc(C(=O)OCCN(C)C)cc1` [Tetracaine HCl], the “Comment(s): re-evaluation as TRPV3 antagonist” value on human TRPV3 [3] is listed as “inhibited TRPA1>V3=V1”. For the same compound, the “concentration of apparent TRPV1 agonist activity” value at human TRPV1 is under 25 µmol/L. As to `CC(=O)OC(C)C[N+](C)(C)C` (centres unmarked) [Methacholine], the “Comment(s) … as TRPV3 agonist” value at human TRPV3 [1] was “Nonselective; HEK-293 response”. Turning to Acriflavinium HCl, at human TRPV3 [1], the “Comment(s) … as TRPV3 agonist” value is “Fluorescence interference”. For `CN[C@@H]1[C@H](O)[C@H](NC)[C@H]2O[C@@]3(O)C(=O)C[C@@H](C)O[C@H]3O[C@@H]2[C@H]1O.Cl.Cl.O.O.O.O.O` [Spectinomycin HCl], the “Comment(s): re-evaluation as TRPV3 antagonist” value on human TRPV3 [3] is reported as “Not inhibitory on rescreen”.

Take `O=C1C(CC[S+]([O-])c2ccccc2)C(=O)N(c2ccccc2)N1c1ccccc1` (centres unmarked) [Sulfinpyrazone]: the “Comment(s): re-evaluation as TRPV3 antagonist” value on human TRPV3 [3] is reported as “Not inhibitory on rescreen”. Consider `O=C(N[C@H](CO)[C@H](O)c1ccc([N+](=O)[O-])cc1)C(Cl)Cl` [Chloramphenicol], for which the “Comment(s): re-evaluation as TRPV3 antagonist” value at human TRPV3 [3] is given as “Not inhibitory on rescreen”. With `CC(C)COCC(CN(Cc1ccccc1)c1ccccc1)N1CCCC1.Cl.O` (centres unmarked) [Bepradil HCl], the “Comment(s) … as TRPV3 agonist” value on human TRPV3 [1] is reported as “Inactive in confirmation assay”. `CC(C)=CCC/C(C)=C/CC/C(C)=C/COP(=O)(O)OP(=O)(O)O` [farnesyl pyrophosphate]: in the series on TRPV3 (ref Bang et al. [2010]), the concentration for a half-maximal effect (EC50) was about 0.13 µM. Consider `CC(=O)Nc1ccccc1` [Acetanilide], for which the “Comment(s) … as TRPV3 agonist” value at human TRPV3 [1] is on record as “Inactive in confirmation assay”. As for `Cc1ccc(C(C)(C)C)c(O)c1` [cresol, 6-tert-butyl-m-cresol], in the series with TRPV3 (ref Vogt-Eisele et al. [2007]), the EC50 is over 6000 µM.

Regarding `CC(=O)CC(c1ccccc1)c1c(O)c2ccccc2oc1=O` (centres unmarked) [Warfarin], the “Comment(s): re-evaluation as TRPV3 antagonist” value at human TRPV3 [3] is listed as “Nonselective; also inhibited TRPV1”.

Regarding `Cc1cccc2c1N(C(=O)CSc1ccc(C(F)(F)F)cn1)CCC2` [TRPV3 antagonist, 2-(5-trifluoromethyl-pyridine-2ylsulfanyl)-1-(8-methyl-3,4-dihydro-2H-quinolin-1-yl)-ethanone], the IC50 at human TRPV3 [4] was in the range of 1 to 3 µM. On to `CC[C@H]1OC(=O)[C@H](C)[C@@H](O[C@H]2C[C@@](C)(OC)[C@@H](O)[C@H](C)O2)[C@H](C)[C@@H](O[C@@H]2O[C@H](C)C[C@H](N(C)C)[C@H]2O)[C@](C)(O)C[C@@H](C)C(=O)[C@H](C)[C@@H](O)[C@]1(C)O` [Erythromycin], for which, on human TRPV3 [3], the “Comment(s): re-evaluation as TRPV3 antagonist” value is “Not inhibitory on rescreen”.

On to `CCCCCCc1ccc(O)cc1O.Nc1c2ccccc2nc2ccccc12` [Acrisorcin], for which the “Comment(s) … as TRPV3 agonist” value on human TRPV3 [1] is 4-Hexylresorcinol inactive as TRPV3 agonist; 9-aminoacridine fluorescence interference. Consider `CCCCOc1ccc(C(=O)CCN2CCCCC2)cc1` [Dyclonine HCl], for which the “Comment(s): re-evaluation as TRPV3 antagonist” value on human TRPV3 [3] is listed as “Not inhibitory on rescreen”.

These data come from PMC4115637 (Pharmacology Research & Perspectives, 2014).
